Reference: patent EP4740948A1 (Dong Wha Pharm. Co., Ltd., priority 2023, dated 2025)

Columns and labels:
Type in all cases: cell-based
MIA-PaCa-2 cells = assay: Cancer cell proliferation inhibition (Cell Counting Kit-8), pancreatic cancer cell line; details: 1000 nM, cultured seven to 11 days; for inhibition at 1 µM: Homo sapiens, MIA PaCa-2, 264 h, read-out: % inhibition rate MIA-Paca2
Description: (§1) In addition, as one example of solid cancer in which an overexpression of EZH2 and a consequent disease association therebetween is reported, a proliferation inhibitory activity of the 1,3-benzodioxole derivative compounds represented by chemical formula I of the present invention was evaluated in Lovo cells as a colorectal cancer cell line, SW-13 cells as an adrenal cancer cell line, MIA-PaCa-2 cells as a pancreatic cancer cell line, and NCI-H1299 cells as a lung cancer cell line.
(§2) Each cell line (G401 cell, MKN-45 cell, Lovo cell, SW-13 cell, MIA-PaCa-2, NCI-H1299) of Table 2 below was cultured using RPMI1640, McCoy's 5a, L-15 or DMEM containing 10% fetal bovine serum, and the cells were seeded into wells of a 96-well culture dish at 100 to 1,000 cells each, and a test substance 1000 nM was cultured for seven to 11 days after drug treatment. After the culture, the cells were measured according to a manufacturer's instructions using Cell Counting Kit-8, and a cell proliferation inhibitory effect (% inhibition rate) of the test substance was obtained.
(§3) The cell proliferation inhibitory effect (% inhibition rate) of the test substance was calculated using a following equation. % inhibition rate = {1−(testgroup/controlgroup)} X 100 [formula]

MKN-45 cells = assay: Cancer cell proliferation inhibition (Cell Counting Kit-8), gastric cancer cell line; details: 1000 nM, cultured seven to 11 days; for inhibition at 1 µM: Homo sapiens, MKN-45, 264 h, read-out: % inhibition rate MKN -45
Excerpt: (§4) Among solid cancer cells, in G401 cells in which expression of SMARCB1, which is a member of switch/sucrosenon-fermenting (SWI/SNF), is defective as a cell line of a rhabdoid tumor in which a therapeutic effect may be expected through dual inhibition of EZH1/2, and MKN-45 cells in which expression of ARID1A, which is a member of SWI/SNF, is defective as a gastric cancer cell line, a proliferation inhibitory ability of the 1,3-benzodioxole derivative compounds represented by chemical formula I of the present invention was evaluated.
as §2, §3

Lovo cells = assay: Cancer cell proliferation inhibition (Cell Counting Kit-8), colorectal cancer cell line; details: 1000 nM, cultured seven to 11 days; for inhibition at 1 µM: Homo sapiens, LoVo, 264 h, read-out: % inhibition rate LoVo
Description: as §1, §2, §3

SW-13 cells = assay: Cancer cell proliferation inhibition (Cell Counting Kit-8), adrenal cancer cell line; details: 1000 nM, cultured seven to 11 days; for inhibition at 1 µM: Homo sapiens, SW13, 264 h, read-out: % inhibition rate SW-13
Description: as §1, §2, §3

G401 cells = assay: Cancer cell proliferation inhibition (Cell Counting Kit-8), rhabdoid tumor cell line; details: 1000 nM, cultured seven to 11 days; for inhibition at 1 µM: Homo sapiens, G-401, 264 h, read-out: % inhibition rate G401; for % inhibition rate G401: 1 µM
Excerpt: as §4, §2, §3

NCI-H1299 cells = assay: Cancer cell proliferation inhibition (Cell Counting Kit-8), lung cancer cell line; details: 1000 nM, cultured seven to 11 days; for inhibition at 1 µM: Homo sapiens, NCI-H1299, 264 h, read-out: % inhibition rate NCI-H129 9
Description: as §1, §2, §3

Structure (SMILES) | inhibition at 1 µM (MIA-PaCa-2 cells) [%] | inhibition at 1 µM (MKN-45 cells) [%] | inhibition at 1 µM (Lovo cells) [%] | inhibition at 1 µM (SW-13 cells) [%] | inhibition at 1 µM (G401 cells) [%] | inhibition at 1 µM (NCI-H1299 cells) [%] | % inhibition rate MIA-Paca2 (MIA-PaCa-2 cells) | % inhibition rate MKN -45 (MKN-45 cells) | % inhibition rate LoVo (Lovo cells; 1 µM) | % inhibition rate SW-13 (SW-13 cells; 1 µM) | % inhibition rate G401 (G401 cells) | % inhibition rate NCI-H129 9 (NCI-H1299 cells) | % inhibition rate MKN -45 (MKN-45 cells; 1 µM) | % inhibition rate LoVo (Lovo cells) | % inhibition rate NCI-H129 9 (NCI-H1299 cells; 1 µM) | % inhibition rate SW-13 (SW-13 cells)
CSc1cc(C)[nH]c(=O)c1CNC(=O)c1cc(-c2ccc(N3C[C@@H](C)O[C@@H](C)C3)nc2)c2c(c1C)OC(C)([C@H]1CC[C@H](N3CC(OC(C)C)C3)CC1)O2 (stereo partly drawn) [Compound 105, 7-(6-((2S,6R)-2,6-dimethylmorpholino)pyridin-3-yl)-2-(trans-4-(3-isopropoxyazetidin-1-yl)cyclohexyl)-2,4-dimethyl-N-((6-methyl-4-(methylthio)-2-oxo-1,2-dihydropyridin-3-yl)methyl)benzo[d][1,3]dioxole-5-carboxamide] | ≥ 70 | ≥ 70 | ≥ 70 | ≥ 70 | 30 to 70 | ≥ 70 | – | – | – | – | – | – | – | – | – | –
CCN1CCC(C2(C)Oc3c(-c4ccc(N5C[C@@H](C)O[C@@H](C)C5)nc4)cc(C(=O)NCc4c(SC)cc(C)[nH]c4=O)c(C)c3O2)CC1 (single isomer, unassigned) [Compound 50] | – | – | – | – | – | – | + (+: ≤30%) | + (+: ≤30%) | + (+: ≤30%) | + (+: ≤30%) | + (+: ≤30%) | ++ (++: more than 30% and less than 70%) | – | – | – | –
CCN1CCC(C2(C)Oc3c(-c4cnc(N5CCOCC5)nc4)cc(C(=O)NCc4c(SC)cc(C)[nH]c4=O)c(C)c3O2)CC1 (single isomer, unassigned) [Compound 74, 2-(1-ethylpiperidin-4-yl)-2,4-dimethyl-N-((6-methyl-4-(methylthio)-2-oxo-1,2-dihydropyridin-3-yl)methyl)-7-(2-morpholinopyrimidin-5-yl)benzo[d][1,3]dioxole-5-carboxamide] | – | – | – | – | – | – | + (+: ≤30%) | – | – | + (+: ≤30%) | + (+: ≤30%) | + (+: ≤30%) | + (+: ≤30%) | ++ (++: more than 30% and less than 70%) | – | –
CSc1cc(C)[nH]c(=O)c1CNC(=O)c1cc(-c2ccc(N3C[C@@H](C)O[C@@H](C)C3)nc2)c2c(c1C)OC(C)(C1CCN(C(=O)C(F)(F)F)CC1)O2 (single isomer, unassigned) [Compound 60] | – | – | – | – | – | – | + (+: ≤30%) | – | – | + (+: ≤30%) | + (+: ≤30%) | – | + (+: ≤30%) | +++ (+++: ≥70%) | + (+: ≤30%) | –
CCN(C)c1ncc(-c2cc(C(=O)NCc3c(SC)cc(C)[nH]c3=O)c(C)c3c2OC(C)(C2CCN(CC(F)F)CC2)O3)cn1 (single isomer, unassigned) [Compound 82, 2-(1-(2,2-difluoroethyl)piperidin-4-yl)-7-(2-(ethyl(methyl)amino)pyrimidin-5-yl)-2,4-dimethyl-N-((6-methyl-4-(methylthio)-2-oxo-1,2-dihydropyridin-3-yl)methyl)benzo[d][1,3]dioxole-5-carboxamide] | – | – | – | – | – | – | + (+: ≤30%) | – | – | + (+: ≤30%) | ++ (++: more than 30% and less than 70%) | + (+: ≤30%) | + (+: ≤30%) | +++ (+++: ≥70%) | – | –
CSc1cc(C)[nH]c(=O)c1CNC(=O)c1cc(-c2ccc(N3C[C@@H](C)O[C@@H](C)C3)nc2)c2c(c1C)OC(C)(C1CCN(C3CCCCC3)CC1)O2 (single isomer, unassigned) [Compound 54] | – | – | – | – | – | – | + (+: ≤30%) | + (+: ≤30%) | ++ (++: more than 30% and less than 70%) | – | ++ (++: more than 30% and less than 70%) | – | – | – | + (+: ≤30%) | ++ (++: more than 30% and less than 70%)
CCN1CCC(C2(C)Oc3c(-c4cnc(N(C)CC)nc4)cc(C(=O)NCc4c(SC)cc(C)[nH]c4=O)c(C)c3O2)CC1 (single isomer, unassigned) [Compound 84, 7-(2-(ethyl(methyl)amino)pyrimidin-5-yl)-2-(1-ethylpiperidin-4-yl)-2,4-dimethyl-N-((6-methyl-4-(methylthio)-2-oxo-1,2-dihydropyridin-3-yl)methyl)benzo[d][1,3]dioxole-5-carboxamide] | – | – | – | – | – | – | + (+: ≤30%) | + (+: ≤30%) | + (+: ≤30%) | + (+: ≤30%) | + (+: ≤30%) | + (+: ≤30%) | – | – | – | –
CSc1cc(C)[nH]c(=O)c1CNC(=O)c1cc(-c2ccc(N3C[C@@H](C)O[C@@H](C)C3)nc2)c2c(c1C)OC(C)(C1CCN(C(C)C)CC1)O2 (single isomer, unassigned) [Compound 52] | – | – | – | – | – | – | + (+: ≤30%) | + (+: ≤30%) | + (+: ≤30%) | + (+: ≤30%) | + (+: ≤30%) | – | – | – | + (+: ≤30%) | –
CCN(C)c1ccc(-c2cc(C(=O)NCc3c(SC)cc(C)[nH]c3=O)c(C)c3c2OC(C)(C2CCN(CC(F)(F)F)CC2)O3)cn1 (single isomer, unassigned) [Compound 80, 7-(2-(ethyl(methyl)amino)pyridin-5-yl)-2,4-dimethyl-N-((6-methyl-4-(methylthio)-2-oxo-1,2-dihydropyridin-3-yl)methyl)-2-(1-(2,2,2-trifluoroethyl)piperidin-4-yl)benzo[d][1,3]dioxole-5-carboxamide] | – | – | – | – | – | – | + (+: ≤30%) | – | – | + (+: ≤30%) | + (+: ≤30%) | – | ++ (++: more than 30% and less than 70%) | +++ (+++: ≥70%) | + (+: ≤30%) | –
CCN1CCN(c2ncc(-c3cc(C(=O)NCc4c(SC)cc(C)[nH]c4=O)c(C)c4c3OC(C)(C3CCN(CC(F)(F)F)CC3)O4)cn2)CC1 (single isomer, unassigned) [Compound 77, 7-(2-(4-ethylpiperazin-1-yl)pyrimidin-5-yl)-2,4-dimethyl-N-((6-methyl-4-(methylthio)-2-oxo-1,2-dihydropyridin-3-yl)methyl)-2-(1-(2,2,2-trifluoroethyl)piperidin-4-yl)benzo[d][1,3]dioxole-5-carboxamide] | – | – | – | – | – | – | + (+: ≤30%) | – | ++ (++: more than 30% and less than 70%) | + (+: ≤30%) | + (+: ≤30%) | + (+: ≤30%) | + (+: ≤30%) | – | – | –
CSc1cc(C)[nH]c(=O)c1CNC(=O)c1cc(-c2ccc(N3CC(C)CC(C)C3)nc2)c2c(c1C)OC(C)(C1CCN(CC(F)(F)F)CC1)O2 (stereo not drawn) [Compound 37, 7-(6-(3,5-dimethylpiperidin-1-yl)pyridin-3-yl)-2,4-dimethyl-N-((6-methyl-4-(methylthio)-2-oxo-1,2-dihydropyridin-3-yl)methyl)-2-(1-(2,2,2-trifluoroethyl)piperidin-4-yl)benzo[d][1,3]dioxole-5-carboxamide] | ≤ 30 | ≤ 30 | ≥ 70 | ≤ 30 | ≤ 30 | 30 to 70 | – | – | – | – | – | – | – | – | – | –
